Molecules are shown by their SMILES.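 Grown in 96-well plates, cells were treated for 48 hours with each compound at five concentrations. Insufficient inhibition: endpoint recorded as highest concentration tested. GI50 is the concentration that inhibits growth by half. TGI is the concentration that stops growth completely.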

Common to all, as to experiment: NCI-60 cell line screen, 48 h
Experiment [1] relates to SR leukemia.
Experiment [2] deals with HCT-116 colon.
Experiment [3] has as its system OVCAR-4 ovarian.
Experiment [4] deals with NCI/ADR-RES ovarian.
Experiment [5] relates to MOLT-4 leukemia.
In experiment [6] the test system is MDA-MB-435.
Experiment [7] relates to PC-3 prostate.
In experiment [8] the test system is MCF7 breast.
Experiment [9] concerns RPMI-8226 leukemia.
In experiment [10] the test system is MDA-MB-231 breast.

`COc1ccc(/C=C(\C#N)c2cc3ccccc3n2C)cc1`: the GI50 was 0.176 µM in [1]; 0.426 µM in [2]; 1.09 µM in [3]; 0.319 µM in experiment [4]; 0.448 µM in experiment [5]; 0.153 µM in [6]. Moreover, the GI50 in experiment [7] is 0.448 µM; in experiment [8] it was 0.343 µM; in experiment [9] it was 0.388 µM; in experiment [10], 0.699 µM. In addition, the TGI is > 100 µM in experiment [2]; > 100 µM in experiment [3]; > 28.7 µM in [4]; > 40.3 µM in experiment [5]; 0.403 µM in experiment [6]; > 100 µM in experiment [7]. Moreover, the TGI in [8], in [9] and in experiment [10] was > 100 µM each time.
As to `O=C(NNS(=O)(=O)c1cc(C(F)(F)F)cc(C(F)(F)F)c1)c1cnn(-c2ccc(Cl)cc2)c1C(F)(F)F`, the GI50 in [1] was 19.4 µM; in experiment [2], 15.5 µM; in [3] it was 38.3 µM; in experiment [4], 19.6 µM; in experiment [5] it was 19.9 µM; in experiment [6], 17 µM. Moreover, the GI50 is 16.4 µM in [7], 21.5 µM in experiment [8], 13.3 µM in experiment [9] and 19.6 µM in experiment [10]. The TGI is 42 µM in experiment [1]; 29.6 µM in [2]; > 100 µM in experiment [3]; 41 µM in experiment [4]; 52.3 µM in experiment [5]; 33.2 µM in experiment [6]. Also, the TGI was found to be 32.8 µM in experiment [7], 58.9 µM in experiment [8], 33.1 µM in [9] and 40.3 µM in experiment [10].
Take `O=Nc1c(O)ccc2ccccc12`: the GI50 was 2.16 µM in [1]; 2.25 µM in experiment [2]; 1.29 µM in [3]; 2.92 µM in experiment [4]; 3.58 µM in [5]; 1.88 µM in experiment [6]. Further, the GI50 in experiment [7] was 1.85 µM; in experiment [8], 2.03 µM; in experiment [9] it was 2.64 µM; in experiment [10] it was 2.03 µM. The TGI in [1] came to 5.86 µM; in experiment [2], 5.87 µM; in [3], 2.57 µM; in experiment [4] it was 9.21 µM; in experiment [5], 28.6 µM; in experiment [6] it was 3.38 µM. The TGI was determined as 8.29 µM in experiment [7], 4.71 µM in experiment [8], 7.21 µM in [9] and 10.2 µM in experiment [10].
Regarding `Oc1ccc2ccccc2c1N=Nc1ccccc1`, the TGI in [1], in [2], in experiment [3], in [4], in experiment [5] and in experiment [6] was > 100 µM in each case. Further, the TGI in [7], in [8], in experiment [9] and in experiment [10] was > 100 µM each time.
As for `CC(=O)/C(C)=N/N/C(N)=N\S(=O)(=O)c1cc(C(=O)Nc2ccccc2)c(Cl)cc1SCc1ccccc1`, the GI50 in experiment [1] is 6.2 µM; in experiment [2] it was 0.337 µM; in experiment [3], 12.3 µM; in experiment [4] it was > 100 µM; in experiment [5], 3.73 µM; in experiment [6], 34.4 µM. Also, the GI50 in experiment [7] was > 100 µM; in experiment [8], 76.7 µM; in [9], 7.01 µM; in experiment [10], 5.94 µM. In addition, the TGI in experiment [1] was > 100 µM; in experiment [2], > 100 µM; in experiment [3] it was > 100 µM; in [4], > 100 µM; in experiment [5], 56.3 µM; in [6], > 100 µM. Further, the TGI in [7], in experiment [8], in [9] and in experiment [10] was > 100 µM in each case.
Regarding `COc1ccc(C(O)c2cc3c(N)c(C(=O)Nc4cccc(Br)c4)sc3nc2C)cc1` (centres undefined), the GI50 in experiment [1] is 0.0979 µM; in experiment [2], 0.107 µM; in experiment [3] it was 0.224 µM; in [4], 0.104 µM; in experiment [5], 0.14 µM; in experiment [6], 0.0202 µM. Moreover, the GI50 in experiment [7] is 0.204 µM; in experiment [8] it was 0.125 µM; in [9], 0.371 µM; in experiment [10], 0.104 µM. Moreover, the TGI was > 32.7 µM in experiment [1]; 16.8 µM in experiment [2]; > 84.2 µM in [3]; 4.87 µM in [4]; > 52.8 µM in experiment [5]; 0.05 µM in experiment [6]. The TGI in experiment [7] is > 100 µM; in experiment [8], > 58.4 µM; in experiment [9], 33.6 µM; in experiment [10] it was 1.63 µM.
`C#Cc1ccc(NC(=O)c2ccc(/C=C/C(=O)c3nccn3C)cc2)cc1`: the GI50 in experiment [1] was 0.115 µM; in experiment [2], 0.326 µM; in experiment [3], 0.727 µM; in experiment [4], 0.77 µM; in experiment [5], 0.582 µM; in experiment [6], 0.58 µM. The GI50 was 0.476 µM in [7], 0.3 µM in [8], 0.115 µM in [9] and 0.761 µM in experiment [10]. Further, the TGI was found to be 3.33 µM in experiment [1]; 0.721 µM in [2]; 25 µM in [3]; 25 µM in experiment [4]; 1.54 µM in experiment [5]; 1.5 µM in [6]. Moreover, the TGI in [7] stood at 1.53 µM; in [8], 1.09 µM; in [9] it was 0.672 µM; in [10], 2.71 µM.
